Experimental data from the NIST ThermoML archive (doi:10.1021/je100552a).

What was measured:
[1] = refractive index (Na D-line) (dimensionless); xn = mol fraction of the nth substance listed; conditions: 101 kPa, Liquid, Standard Abbe refractometry
[2] = xn = mol fraction of the nth substance listed; conditions: 101 kPa, Liquid; for viscosity: Capillary tube (Ostwald / Ubbelohde) method

Clc1ccccc1 [chlorobenzene] + ClCCCl
Conditions	mass density, [2] [kg/m3]	refractive index, [1]	viscosity, [2] [mPa·s]
298.15 K, x2 = 0.1022	1111.56	1.5149	0.7456
298.15 K, x2 = 0.2015	1123.05	1.508	0.7387
298.15 K, x2 = 0.3013	1135.29	1.5012	0.7351
298.15 K, x2 = 0.4039	1148.64	1.4935	0.7364
298.15 K, x2 = 0.4999	1161.91	1.486	0.7372
298.15 K, x2 = 0.5977	1176.36	1.4781	0.741
298.15 K, x2 = 0.6986	1192.24	1.4696	0.7445
298.15 K, x2 = 0.8	1209.3	1.4607	0.7536
298.15 K, x2 = 0.899	1227.12	1.4516	0.7659
303.15 K, x2 = 0.1022	1106.04	1.512	0.7146
303.15 K, x2 = 0.2015	1117.48	1.5052	0.7049
303.15 K, x2 = 0.3013	1129.68	1.4983	0.6991
303.15 K, x2 = 0.4039	1142.96	1.4908	0.6969
303.15 K, x2 = 0.4999	1156.2	1.4832	0.6963
303.15 K, x2 = 0.5977	1170.62	1.4752	0.6973
303.15 K, x2 = 0.6986	1186.46	1.4666	0.6975
303.15 K, x2 = 0.8	1203.48	1.4576	0.7009
303.15 K, x2 = 0.899	1221.28	1.4484	0.71
308.15 K, x2 = 0.1022	1100.15	1.509	0.6659
308.15 K, x2 = 0.2015	1111.22	1.5022	0.6595
308.15 K, x2 = 0.3013	1123.02	1.4951	0.6542
308.15 K, x2 = 0.4039	1135.91	1.4873	0.6505
308.15 K, x2 = 0.4999	1148.68	1.4797	0.6506
308.15 K, x2 = 0.5977	1162.62	1.4715	0.65
308.15 K, x2 = 0.6986	1177.92	1.4626	0.6493
308.15 K, x2 = 0.8	1194.4	1.4534	0.653
308.15 K, x2 = 0.899	1211.62	1.444	0.6574
313.15 K, x2 = 0.1022	1094.68	1.5049	0.619
313.15 K, x2 = 0.2015	1105.79	1.4983	0.6151
313.15 K, x2 = 0.3013	1117.62	1.4915	0.6143
313.15 K, x2 = 0.4039	1130.48	1.4838	0.6119
313.15 K, x2 = 0.4999	1143.37	1.4763	0.6125
313.15 K, x2 = 0.5977	1157.36	1.4682	0.6158
313.15 K, x2 = 0.6986	1172.73	1.4595	0.6191
313.15 K, x2 = 0.8	1189.28	1.4503	0.6241
313.15 K, x2 = 0.899	1206.59	1.441	0.6314

Brc1ccccc1 [bromobenzene] + ClCCCl
Conditions	refractive index, 298.15 K	refractive index, 303.15 K	refractive index, 308.15 K	refractive index, 313.15 K	viscosity, 298.15 K [mPa·s]	viscosity, 303.15 K [mPa·s]	viscosity, 308.15 K [mPa·s]	viscosity, 313.15 K [mPa·s]
[1], x2 = 0.1014	1.5479	1.5439	1.5412	1.5372	–	–	–	–
[1], x2 = 0.2002	1.5398	1.5355	1.5321	1.5279	–	–	–	–
[1], x2 = 0.3004	1.5313	1.5266	1.5227	1.5182	–	–	–	–
[1], x2 = 0.3999	1.5218	1.517	1.5128	1.5079	–	–	–	–
[1], x2 = 0.5008	1.5107	1.506	1.5015	1.4967	–	–	–	–
[1], x2 = 0.6001	1.4984	1.494	1.4893	1.4849	–	–	–	–
[1], x2 = 0.6999	1.4847	1.4808	1.4761	1.4722	–	–	–	–
[1], x2 = 0.7995	1.4704	1.4671	1.4622	1.459	–	–	–	–
[1], x2 = 0.8998	1.4559	1.4528	1.4479	1.4452	–	–	–	–
[2], x2 = 0.1014	–	–	–	–	1.041	0.9749	0.9162	0.8463
[2], x2 = 0.2002	–	–	–	–	1.004	0.9388	0.8809	0.8155
[2], x2 = 0.3004	–	–	–	–	0.9677	0.904	0.8474	0.787
[2], x2 = 0.3999	–	–	–	–	0.9348	0.8714	0.815	0.7607
[2], x2 = 0.5008	–	–	–	–	0.9036	0.8409	0.7839	0.7355
[2], x2 = 0.6001	–	–	–	–	0.8752	0.8141	0.7583	0.712
[2], x2 = 0.6999	–	–	–	–	0.8496	0.7886	0.7321	0.6917
[2], x2 = 0.7995	–	–	–	–	0.8268	0.7646	0.711	0.6728
[2], x2 = 0.8998	–	–	–	–	0.8058	0.7445	0.6904	0.6569

mass density [kg/m3], [2], Vibrating tube method
Conditions	x2 = 0.1014	x2 = 0.2002	x2 = 0.3004	x2 = 0.3999	x2 = 0.5008	x2 = 0.6001	x2 = 0.6999	x2 = 0.7995	x2 = 0.8998
298.15 K	1469.57	1449.41	1428.09	1406.01	1382.5	1358.18	1332.44	1305.43	1276.72
303.15 K	1461.55	1441.65	1420.51	1398.59	1375.26	1351.21	1325.77	1299.12	1270.73
308.15 K	1455.77	1435.38	1413.75	1391.37	1367.54	1342.97	1317.02	1289.84	1260.96
313.15 K	1447.63	1427.53	1406.26	1384.19	1360.71	1336.5	1310.92	1284.14	1255.65
